Measurements as given in patent US9994548B2, “Phenyl-substituted nicotinic ligands, and methods of use thereof” (Georgetown University, priority 2011, dated 2018).
Entries after “also recorded” stand apart in the source; their conditions may differ.

Columns and labels:
human α4β2 nAChRs = target: T1, human α4β2 nAChRs (Homo sapiens, UniProt P17787+P43681); assay: 86Rb+ efflux assay in stably transfected cells; type: cell-based
T1 construct: expressed in transfected cells
Experimental: (§1) The cell line expressing rat α3β4 nAChRs, KXα3β4R2, was established previously by stably transfecting HEK 293 cells with combinations of rat nAChR α3 and β4 subunit genes. The cell line expressing human α4β2 nAChRs, YXα4β2H1, were established recently (Tuan et al., 2012, manuscript in preparation). These cell lines were maintained in minimum essential medium (MEM) supplemented with 10% fetal bovine serum, 100 units/mL penicillin G, […] streptomycin and selective antibiotics at 37° C. with 5% CO2 in a humidified incubator. Tissue culture medium and antibiotics were obtained from Invitrogen Corporation (Carlsbad, Calif.), unless otherwise stated. Fetal bovine serum and horse serum were provided by Gemini Bio-Products (Woodland, Calif.).
(§2) Functional properties of compounds at nAChRs expressed in the transfected cells were measured using ^86Rb^+ efflux assays as described previously. In brief, cells were plated into 24-well plates coated with poly-D-lysine. The plated cells were grown at 37° C. for 18 to 24 hour to reach 85-95% confluence. The cells were then incubated in growth medium (0.5 mL/well) containing ^86Rb^+ (2 μCi/mL) for 4 hour at 37° C. The loading mixture was then aspirated, and the cells were washed four times with 1 mL buffer (15 mM HEPES, 140 mM NaCl, 2 mM KCl, 1 mM MgSO4, 1.8 mM CaCl2, 11 mM Glucose, pH 7.4). One mL of buffer with or without compounds to be tested was then added to each well. After incubation for 2 min, the assay buffer was collected for measurements of ^86Rb^+ released from the cells. Cells were then lysed by adding 1 mL of 100 mM NaOH to each well, and the lysate was collected for determination of the amount of ^86Rb^+ that was in the cells at the end of the efflux assay. Radioactivity of assay samples and lysates was measured by liquid scintillation counting. Total loading (cpm) was calculated as the sum of the assay sample and the lysate of each well. The amount of ^86Rb^+ efflux was expressed as a percentage of ^86Rb^+ loaded. […] For obtaining EC50 and Emax values, stimulation curves were constructed in which 8 different concentrations of a ligand were included in the assay. […] EC50, Emax and IC50(10′) values were determined by nonlinear least-squares regression analyses (GraphPad, San Diego, Calif.).
(§3) Functional properties of the new ligands were determined by ^86Rb^1 efflux assays in cells expressing α3β4 and α4β2 nAChR subtypes. Functional activity of each new ligand was measured in terms of its agonism, antagonism and desensitization ability.
(§4) Agonist activity of each of the ligands was tested at eight concentrations. […] The full concentration-effect curves generated potency (EC50) and efficacy (Emax) of each ligand.
(§5) Though the ^86Rb^+ efflux assays were the main methodology used to determine functional properties, whole-cell current measurements were also used to verify the key experiments.

rat α3β4 nAChRs = target: T2, rat α3β4 nAChRs (Rattus norvegicus, UniProt P04757+P12392); assay: 86Rb+ efflux assay in stably transfected cells; type: cell-based; conditions: 86Rb+ efflux, rat α3β4
T2 construct: expressed in transfected cells; host or cells: HEK 293 (KXα3β4R2)
T2 sequence (P04757 26-499): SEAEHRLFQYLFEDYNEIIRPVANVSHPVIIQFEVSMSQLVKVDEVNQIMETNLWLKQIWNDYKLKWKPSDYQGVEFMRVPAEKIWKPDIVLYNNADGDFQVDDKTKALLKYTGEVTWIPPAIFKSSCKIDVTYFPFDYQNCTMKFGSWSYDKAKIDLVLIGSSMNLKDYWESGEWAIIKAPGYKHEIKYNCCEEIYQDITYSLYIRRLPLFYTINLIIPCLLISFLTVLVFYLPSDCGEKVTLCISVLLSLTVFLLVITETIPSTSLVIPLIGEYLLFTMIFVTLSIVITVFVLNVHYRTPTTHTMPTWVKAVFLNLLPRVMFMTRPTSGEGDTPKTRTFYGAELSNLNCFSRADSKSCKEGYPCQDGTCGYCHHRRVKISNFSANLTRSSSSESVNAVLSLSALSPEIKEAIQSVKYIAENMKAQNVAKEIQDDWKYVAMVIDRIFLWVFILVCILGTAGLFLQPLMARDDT
T2 sequence (P12392 21-495): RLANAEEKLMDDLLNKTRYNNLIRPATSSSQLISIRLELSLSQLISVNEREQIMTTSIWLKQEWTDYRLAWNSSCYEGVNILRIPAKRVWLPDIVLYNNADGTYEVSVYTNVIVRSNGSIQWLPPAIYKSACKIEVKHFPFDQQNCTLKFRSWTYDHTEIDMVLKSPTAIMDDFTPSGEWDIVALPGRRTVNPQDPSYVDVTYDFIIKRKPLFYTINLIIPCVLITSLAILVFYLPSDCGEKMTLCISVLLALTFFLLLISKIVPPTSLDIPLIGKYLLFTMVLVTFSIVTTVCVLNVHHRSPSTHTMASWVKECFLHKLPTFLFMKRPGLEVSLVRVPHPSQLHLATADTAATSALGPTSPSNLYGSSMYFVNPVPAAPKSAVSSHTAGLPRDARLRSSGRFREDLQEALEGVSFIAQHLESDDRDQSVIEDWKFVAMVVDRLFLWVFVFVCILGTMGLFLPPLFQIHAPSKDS
Experimental: as §1, §2, §3, §4, §5

[1] = tested on: nicotine self-administration; assay: Nicotine self-administration in rats; type: in vivo, rat
Experimental: The studies were conducted in accordance with the regulations outlined by the Duke University Animal Care and Use Committee. The rats housed in approved standard laboratory conditions in a Duke University vivarium facility near the testing room to minimize stress induced by transporting the rats. The rats were kept on a 12:12 reverse day/night cycle, so that they were in their active phase during behavioral testing. The rats in the drug iv self-administration studies were singly housed to prevent them from damaging each other's catheters. The rats in the locomotor activity studies were housed in groups of 2-3. All rats were allowed access to water at all times; the rats in the nicotine-self-administration study were fed daily approximately 30 minutes after completing the sessions while those in the locomotor activity study had continuous access to food.
VMY-2-95 was injected s.c. 10 minutes before testing in a volume of 1 mL/kg of saline. The doses (0, 0.3, 1 and 3 mg/kg) were given in a counterbalanced order with at least two days between successive injections.
Each infusion was immediately followed by a one-minute period in which the cue lights went out, the house light came on and responses were recorded but not reinforced.
After food training, the animals were surgically implanted with jugular catheters. […] Alpha of p<0.05 (two-tailed) was used as the threshold for significance.

[2] = tested on: 41 other targets, including many CNS receptors and transporters; assay: NIMH PDSP binding assays for targets other than nAChRs
Experimental: (§6) All binding assays for targets other than nAChRs were performed by the National Institute of Mental Health's Psychoactive Drug Screening Program (PDSP) supported by NIMH grant HHSN-271-2008-00025-C(PI: Bryan Roth). For experimental details (Ki determinations, receptor binding profiles, functional data, MDR1 data, etc. as appropriate) refer to the PDSP web site http://pdsp.med.unc.edu/.
To determine affinities of the lead compound, VMY-2-95, for targets other than neuronal nAChRs, we tested VMY-2-95 in binding assays using 41 other targets, including many CNS receptors and transporters. […] The Ki values of VMY-2-95 at these 9 targets were determined by performing secondary binding assays using a series of concentrations of VMY-2-95. […] Furthermore, the binding affinity of VMY-2-95 for α4β2 nAChRs is at least 3,000 times higher than that for any of those 9 targets.

5-HT3 receptors = target: T3, 5-HT3 receptors (Homo sapiens, UniProt P46098); assay: NIMH PDSP primary binding assay; conditions: 10 μM
T3 sequence (P46098 24-478): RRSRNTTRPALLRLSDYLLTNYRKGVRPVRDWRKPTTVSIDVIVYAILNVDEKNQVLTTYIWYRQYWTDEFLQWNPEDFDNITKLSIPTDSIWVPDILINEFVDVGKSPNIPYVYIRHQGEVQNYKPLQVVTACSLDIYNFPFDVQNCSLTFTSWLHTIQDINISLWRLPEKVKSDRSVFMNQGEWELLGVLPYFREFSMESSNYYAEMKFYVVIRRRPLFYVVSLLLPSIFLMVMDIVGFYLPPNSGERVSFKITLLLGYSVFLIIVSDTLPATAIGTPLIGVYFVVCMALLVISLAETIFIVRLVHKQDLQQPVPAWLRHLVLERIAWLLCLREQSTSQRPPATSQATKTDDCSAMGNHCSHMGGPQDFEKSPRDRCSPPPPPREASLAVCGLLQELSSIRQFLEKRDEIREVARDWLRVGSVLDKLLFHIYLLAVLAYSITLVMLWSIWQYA
Experimental: as §6
The compound either is not a “hit” in primary binding assays, or showing at least 3,000-fold lower binding affinities than that for α4β2 nAChRs in secondary binding assays (FIG. 19,).

[3] = 10 μM, 41 targets, primary binding assays

T1 sequence (P43681 29-627 limits assumed): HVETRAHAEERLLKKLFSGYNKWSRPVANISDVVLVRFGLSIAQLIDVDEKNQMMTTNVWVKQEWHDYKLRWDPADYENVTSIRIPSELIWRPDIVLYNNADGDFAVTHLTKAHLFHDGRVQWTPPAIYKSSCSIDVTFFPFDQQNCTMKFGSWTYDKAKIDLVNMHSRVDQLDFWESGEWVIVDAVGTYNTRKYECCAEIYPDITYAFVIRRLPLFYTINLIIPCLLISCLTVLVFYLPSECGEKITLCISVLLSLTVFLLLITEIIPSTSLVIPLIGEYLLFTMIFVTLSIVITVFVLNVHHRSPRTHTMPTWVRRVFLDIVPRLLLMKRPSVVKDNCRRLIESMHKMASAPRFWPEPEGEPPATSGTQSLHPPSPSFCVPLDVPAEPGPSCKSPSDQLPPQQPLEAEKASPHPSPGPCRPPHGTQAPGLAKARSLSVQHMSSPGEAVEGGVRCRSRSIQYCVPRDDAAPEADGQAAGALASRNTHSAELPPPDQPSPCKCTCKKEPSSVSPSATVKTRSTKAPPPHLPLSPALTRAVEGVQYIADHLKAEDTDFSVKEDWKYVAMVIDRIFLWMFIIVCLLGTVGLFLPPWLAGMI
T1 sequence (P17787 26-502): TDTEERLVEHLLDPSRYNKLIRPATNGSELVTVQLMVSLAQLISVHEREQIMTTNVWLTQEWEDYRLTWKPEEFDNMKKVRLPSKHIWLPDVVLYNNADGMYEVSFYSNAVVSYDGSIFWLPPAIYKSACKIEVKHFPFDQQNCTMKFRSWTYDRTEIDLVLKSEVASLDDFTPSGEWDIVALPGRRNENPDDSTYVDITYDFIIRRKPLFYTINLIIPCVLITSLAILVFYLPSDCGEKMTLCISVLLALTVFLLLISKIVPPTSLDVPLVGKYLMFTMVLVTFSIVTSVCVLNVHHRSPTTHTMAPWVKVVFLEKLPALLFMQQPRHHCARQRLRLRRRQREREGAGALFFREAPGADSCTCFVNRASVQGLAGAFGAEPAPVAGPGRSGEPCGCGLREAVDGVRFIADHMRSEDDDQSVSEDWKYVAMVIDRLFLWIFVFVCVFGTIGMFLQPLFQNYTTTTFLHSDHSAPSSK

## C(#Cc1cncc(OC[C@@H]2CCN2)c1)c1ccccc1 [VMY-2-95, (S)-3-(azetidin-2-ylmethoxy)-5-(phenylethynyl)pyridine]
Human α4β2 nAChRs
  EC50: 8.6 nM
Human α4β2 nAChRs; 86Rb+ efflux, human α4β2
  agonist activity at α4β2 receptors: clear agonist activity
Human α4β2 nAChRs; 10 min pre-treatment before 100 μM (−)-nicotine, read-out: IC50(10′) α4β2 (desensitization potency)
  IC50: 16 nM
Human α4β2 nAChRs; preincubated with the cells for 10 min
  inhibition of nicotine activation of α4β2 receptors: inhibited
Rat α3β4 nAChRs
  agonist activity at α3β4 nAChRs: did not show any detectable agonist activity; also recorded: does not show agonist activity
[1]; 3 mg/kg s.c., 10 min before session, p<0.025
  nicotine self-administration (number of nicotine infusions) vs saline vehicle: significantly reduces; also recorded: significant (p<0.025) decrease
[1]; 0.3, 1, 3 mg/kg s.c., F(3,42)=3.36, p<0.05
  intravenous nicotine self-administration, overall dose effect: decreased intravenous nicotine self-administration in a dose-dependent manner
[1]; lower doses 0.3 and 1 mg/kg s.c.
  nicotine self-administration vs saline vehicle: did not produce significant decreases; also recorded: did not produce significant effects
[2]; [3]
  number of targets "hit" (more than 50% inhibition of binding): 9
  number of targets "miss" (less than 50% inhibition of binding): 32
[2]; Ki from secondary binding assays
  binding affinity for α4β2 nAChRs relative to the 9 hit targets: at least 3,000 times
5-HT3 receptors
  primary binding result at 5-HT3 receptors: not a “hit”
